The test concerns the target T1, human GPR40 (Homo sapiens, UniProt O14842).
T1 construct: expressed in transfected cells; host or cells: CHO-K1
Nature of the test: Induction of Ca2+ (calcium flux assay) using human GPR40 expression cell line. The test is classed as cell-based. The note with it: read-out: EC0.5. An outline of the steps: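 Read-out is intracellular Ca2+ flux on FlexStation after test compounds (DMSO stocks diluted 200-fold in assay buffer) were added to dye-loaded human GPR40/CHO-K1 cells. Cells had been cultured 24 h, then incubated 1 h at 37° C with Calcium 5 dye, HBSS-HEPES pH 7.4; EC0.5 from concentration plot.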
In general terms: A change in cytosolic calcium serves as a functional read-out for many receptors and channels.

Bounds are passed on as bounds.

T1 sequence (O14842 whole entry): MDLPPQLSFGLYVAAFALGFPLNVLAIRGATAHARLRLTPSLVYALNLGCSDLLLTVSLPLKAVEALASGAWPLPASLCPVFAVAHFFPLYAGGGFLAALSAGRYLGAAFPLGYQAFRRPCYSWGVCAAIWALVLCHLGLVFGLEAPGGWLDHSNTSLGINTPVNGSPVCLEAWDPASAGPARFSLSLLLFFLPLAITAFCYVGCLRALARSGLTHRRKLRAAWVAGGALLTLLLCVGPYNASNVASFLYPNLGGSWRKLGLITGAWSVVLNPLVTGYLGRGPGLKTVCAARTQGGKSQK

Take `CC#C[C@@H](CC(=O)O)c1ccc(OCc2ccc3c(cnn3CCc3ccccc3)c2)cc1` [Example 134, (S)-3-[4-(1-phenethyl-1H-indazol-5-ylmethoxy)-phenyl]-hex-4-ynoic acid]: the EC50 was found to be 4 nM.

Consider `O=C(O)CC1CCOc2cc(OCc3ccc4c(cnn4CCc4ccccc4)c3)ccc21` (stereo not drawn) [Example 135, [7-(1-phenethyl-1H-indazol-5-ylmethoxy)-chroman-4-yl]-acetic acid], for which the EC50 is 200 nM.

Regarding `CC#C[C@@H](CC(=O)O)c1ccc(OCc2ccc3c(cnn3CCC(C)C)c2)cc1` [Example 136, (S)-3-{4-[1-(3-methyl-butyl)-1H-indazol-5-ylmethoxy]-phenyl}-hex-4-ynoic acid], the EC50 fell in the range of 1 to 50 nM.

On to `CC(C)CCn1ncc2cc(COc3ccc4c(c3)OCCC4CC(=O)O)ccc21` (stereo not drawn) [Example 137, {7-[1-(3-methyl-butyl)-1H-indazol-5-ylmethoxy]-chroman-4-yl}-acetic acid], for which the EC50 is 50 to 500 nM.

As to `CC#C[C@@H](CC(=O)O)c1ccc(OCc2ccc3c(cnn3CC3CCCCC3)c2)cc1` [Example 138, (S)-3-[4-(1-cyclohexylmethyl-1H-indazol-5-ylmethoxy)-phenyl]-hex-4-ynoic acid], the EC50 turned out to be 10 nM.

For the compound `O=C(O)CC1CCOc2cc(OCc3ccc4c(cnn4CC4CCCCC4)c3)ccc21` (stereo not drawn) [Example 139, [7-(1-cyclohexyl methyl-1H-indazol-5-ylmethoxy)-chroman-4-yl]-acetic acid], the EC50 was 300 nM.

Regarding `CC#C[C@@H](CC(=O)O)c1ccc(OCc2cc(C)c3nn(CC(C)C)cc3c2)cc1` [Example 140, (S)-3-[4-(2-isobutyl-7-methyl-2H-indazol-5-ylmethoxy)-phenyl]-hex-4-ynoic acid], the EC50 came to 4 nM.

Consider `CC#C[C@@H](CC(=O)O)c1ccc(OCc2ccc3c(cnn3Cc3ccccn3)c2)cc1` [Example 141, (S)-3-[4-(1-pyridine-2-ylmethyl-1H-indazol-5-ylmethoxy)-phenyl]-hex-4-ynoic acid], for which the EC50 was in the range of 1 to 50 nM.

Turning to `O=C(O)CC1CCOc2cc(OCc3ccc4c(cnn4Cc4ccccn4)c3)ccc21` (stereo not drawn) [Example 142, [7-(1-pyridine-2-ylmethyl-1H-indazol-5-ylmethoxy)-chroman-4-yl]-acetic acid], the EC50 is at least 500 nM.

`CC#C[C@@H](CC(=O)O)c1ccc(OCc2cnc3c(ccn3Cc3ccccc3)c2)cc1` [Example 143, (S)-3-[4-(1-benzyl-1H-pyrrolo[2,3-b]pyridin-5-ylmethoxy)-phenyl]-hex-4-ynoic acid]: the EC50 was in the range of 1 to 50 nM.

With `CC#C[C@@H](CC(=O)O)c1ccc(OCc2cnc3c(ccn3CC(C)C)c2)cc1` [Example 144, (S)-3-[4-(1-isobutyl-1H-pyrrolo[2,3-b]pyridin-5-ylmethoxy)-phenyl]-hex-4-ynoic acid], the EC50 fell in the range of 1 to 50 nM.

With `Cc1c(COc2ccc3c(c2)OCCC3CC(=O)O)ccc2ccn(Cc3ccccc3)c12` (stereo not drawn) [Example 145, [7-(1-benzyl-7-methyl-1H-indol-6-ylmethoxy)-chroman-4-yl]-acetic acid], the EC50 stood at 40 nM.

In the case of `CC#C[C@@H](CC(=O)O)c1ccc(OCc2ccc3c(cnn3Cc3cccnc3)c2)cc1` [Example 147, (S)-3-[4-(1-pyridin-3-ylmethyl-1H-indazol-5-ylmethoxy)-phenyl]-hex-4-ynoic acid], the EC50 fell in the range of 1 to 50 nM.

As to `O=C(O)CC1CCOc2cc(OCc3ccc4c(cnn4Cc4cccnc4)c3)ccc21` (stereo not drawn) [Example 148, [7-(1-pyridin-3-ylmethyl-1H-indazol-5-ylmethoxy)-chroman-4-yl]-acetic acid], the EC50 is at least 500 nM.

As for `CCOCCn1ncc2cc(COc3ccc4c(c3)OCCC4CC(=O)O)ccc21` (stereo not drawn) [Example 149, {7-[1-(2-ethoxy-ethyl)-1H-indazol-5-ylmethoxy]-chroman-4-yl}-acetic acid], the EC50 is at least 500 nM.

As for `CC#C[C@@H](CC(=O)O)c1ccc(OCc2cc3c(cnn3CC(C)C)cc2F)cc1` [Example 150, (S)-3-[4-(5-fluoro-1-isobutyl-1H-indazol-6-ylmethoxy)-phenyl]-hex-4-ynoic acid], the EC50 was 3 nM.

As for `CC#C[C@@H](CC(=O)O)c1ccc(OCc2ccc3c(cnn3CC3CCCO3)c2)cc1` (stereo partly drawn) [Example 151, (S)-3-{4-[1-(tetrahydrofuran-2-ylmethyl)-1H-indazol-5-ylmethoxy]-phenyl}-hex-4-ynoic acid], the EC50 lay in the range of 1 to 50 nM.

As to `CC#C[C@@H](CC(=O)O)c1ccc(OCc2ccc3c(cnn3CCCS(C)(=O)=O)c2)cc1` [Example 152, (S)-3-{4-[1-(3-methanesulfonyl-propyl)-1H-indazol-5-ylmethoxy]-phenyl}-hex-4-ynoic acid], the EC50 is at least 500 nM.

For `CC#C[C@@H](CC(=O)O)c1ccc(OCc2ccc3c(cnn3CC3CCOC3)c2)cc1` (stereo partly drawn) [Example 153, (S)-3-{4-[1-(tetrahydrofuran-3-ylmethyl)-1H-indazol-5-ylmethoxy]-phenyl}-hex-4-ynoic acid], the EC50 lay in the range of 1 to 50 nM.

Consider `CC#C[C@@H](CC(=O)O)c1ccc(OCc2ccc3nn(CC4CCOC4)cc3c2)cc1` (stereo partly drawn) [Example 154, (S)-3-{4-[2-(tetrahydrofuran-3-ylmethyl)-2H-indazol-5-ylmethoxy]-phenyl}-hex-4-ynoic acid], for which the EC50 is at least 500 nM.

As to `COC(CC(=O)O)c1ccc(OCc2ccc3c(cnn3Cc3ccccc3)c2)cc1` (stereo not drawn) [Example 155, 3-[4-(1-benzyl-1H-indazol-5-ylmethoxy)-phenyl]-3-methoxy-propanoic acid], the EC50 lay in the range of 50 to 500 nM.

Regarding `CC#C[C@@H](CC(=O)O)c1ccc(OCc2cnc3c(cnn3CC(C)C)c2)cc1` [Example 156, (S)-3-[4-(1-isobutyl-1H-pyrazolo[3,4-b]pyridin-5-ylmethoxy)-phenyl]-hex-4-ynoic acid], the EC50 came out at 20 nM.

In the case of `CC#C[C@@H](CC(=O)O)c1ccc(OCc2ccc3c(cnn3CCOCC)c2)cc1` [Example 157, (S)-3-{4-[1-(2-ethoxy-ethyl)-1H-indazol-5-ylmethoxy]-phenyl}-hex-4-ynoic acid], the EC50 lay in the range of 1 to 50 nM.

In the case of `CC(CC(=O)O)c1ccc(OCc2ccc3c(cnn3Cc3ccccc3)c2)cc1` (stereo not drawn) [Example 158, 3-[4-(1-benzyl-1H-indazol-5-ylmethoxy)-phenyl]-butyric acid], the EC50 was 50 nM.

Turning to `CCC(CC(=O)O)c1ccc(OCc2ccc3c(cnn3Cc3ccccc3)c2)cc1` (stereo not drawn) [Example 159, 3-[4-(1-benzyl-1H-indazol-5-ylmethoxy)-phenyl]-pentanoic acid], the EC50 was 100 nM.

As for `CC#C[C@@H](CC(=O)O)c1ccc(OCc2ccc3nn(CCOCC)cc3c2)cc1` [Example 160, (S)-3-{4-[2-(2-ethoxy-ethyl)-2H-indazol-5-ylmethoxy]-phenyl}-hex-4-ynoic acid], the EC50 lay in the range of 50 to 500 nM.

Regarding `CC#C[C@@H](CC(=O)O)c1ccc(OCc2ccc3c(c2)n(C)c(=O)n3Cc2ccccc2)cc1` [Example 161, (S)-3-[4-(1-benzyl-3-methyl-2-oxo-2,3-dihydro-1H-benzoimidazol-5-ylmethoxy)-phenyl]-hex-4-ynoic acid], the EC50 came to 5 nM.

`N#CC(CC(=O)O)c1ccc(OCc2ccc3c(cnn3Cc3ccccc3)c2)cc1` (stereo not drawn) [Example 162, 3-[4-(1-benzyl-1H-indazol-5-ylmethoxy)-phenyl]-3-cyano-propanoic acid]: the EC50 is 20 nM.

On to `CC#C[C@@H](CC(=O)O)c1ccc(OCc2ccc3c(cnn3CC3CCCC3)c2)cc1` [Example 163, (S)-3-[4-(1-cyclopentylmethyl-1H-indazol-5-ylmethoxy)-phenyl]-hex-4-ynoic acid], for which the EC50 was in the range of 1 to 50 nM.

For `CC#C[C@@H](CC(=O)O)c1ccc(OCc2ccc3c(cnn3C3CCCC3)c2)cc1` [Example 164, (S)-3-[4-(1-cyclopentyl-1H-indazol-5-ylmethoxy)-phenyl]-hex-4-ynoic acid], the EC50 is 1 to 50 nM.

`CC#C[C@@H](CC(=O)O)c1ccc(OCc2ccc3c(cnn3CC3CC3)c2)cc1` [Example 165, (S)-3-[4-(1-cyclopropylmethyl-1H-indazol-5-ylmethoxy)-phenyl]-hex-4-ynoic acid]: the EC50 lay within 1 to 50 nM.

Regarding `CC#C[C@@H](CC(=O)O)c1ccc(OCc2ccc3nnn(CC(C)C)c3c2)cc1` [Example 166, (S)-3-[4-(3-isobutyl-3H-benzotriazol-5-ylmethoxy)-phenyl]-hex-4-ynoic acid], the EC50 lay within 50 to 500 nM.

Turning to `O=C(O)C1CC1c1ccc(OCc2ccc3cnn(Cc4ccccc4)c3c2)cc1` (stereo not drawn) [Example 167, 2-[4-(1-benzyl-1H-indazol-6-ylmethoxy)-phenyl]-cyclopropane carboxylic acid], the EC50 stood at 60 nM.

For the compound `CC#C[C@@H](CC(=O)O)c1ccc(OCc2cc(C)c3c(cnn3C(C)C)c2)cc1` [Example 168, (S)-3-[4-(1-isopropyl-7-methyl-1H-indazol-5-ylmethoxy)-phenyl]-hex-4-ynoic acid], the EC50 fell in the range of 1 to 50 nM.

`CC#C[C@@H](CC(=O)O)c1ccc(OCc2cc(C)c3c(cnn3CC3CCCC3)c2)cc1` [Example 169, (S)-3-[4-(1-cyclopentylmethyl-7-methyl-1H-indazol-5-ylmethoxy)-phenyl]-hex-4-ynoic acid]: the EC50 is 1 to 50 nM.

For `CC#C[C@@H](CC(=O)O)c1ccc(OCc2ccc3c(c2)c(C)nn3CC(C)C)cc1` [Example 170, (S)-3-[4-(1-isobutyl-3-methyl-1H-indazol-5-ylmethoxy)-phenyl]-hex-4-ynoic acid], the EC50 was 1 to 50 nM.

For the compound `CC#C[C@@H](CC(=O)O)c1ccc(OCc2cc(C)c3c(cnn3C3CCCC3)c2)cc1` [Example 171, (S)-3-[4-(1-cyclopentyl-7-methyl-1H-indazol-5-ylmethoxy)-phenyl]-hex-4-ynoic acid], the EC50 lay in the range of 1 to 50 nM.

On to `CC#C[C@@H](CC(=O)O)c1ccc(OCc2ccc3cnn(C4CCCC4)c3c2)cc1` [Example 172, (S)-3-[4-(1-cyclopentyl-1H-indazol-6-ylmethoxy)-phenyl]-hex-4-ynoic acid], for which the EC50 was 1 to 50 nM.

With `CC#C[C@@H](CC(=O)O)c1ccc(OCc2ccc3cnn(CC4CCCC4)c3c2)cc1` [Example 173, (S)-3-[4-(1-cyclopentylmethyl-1H-indazol-6-ylmethoxy)-phenyl]-hex-4-ynoic acid], the EC50 lay within 1 to 50 nM.
